In patent US10112978B2, “Peptide and use thereof” (OSAKA UNIVERSITY, priority 2014, dated 2018):
“Also recorded” adds a separate entry of the source.

Experiments:
[1] = system: PMA-differentiated THP-1 cells; assay: Cytokine and chemokine production in PMA-differentiated THP-1 cells (ELISA); type: cell-based, human
Experimental: THP-1 cells were suspended at 5×10^5 cells/mL in RPMI1640 medium containing 50 ng/mL PMA (phorbol 12-myristate 13-acetate) and 10% FBS, and seeded at 5×10^5 cells/well on a 24-well plate. The cells were cultured in a CO2 incubator for 2 days for differentiation into macrophages. After the 2-day culture, the medium was removed, an OSK-1 solution in RPMI1640 medium containing 10% FBS was added to the wells, and overnight culture was performed. Sixteen hours after the addition, the culture supernatant was harvested, and the cytokine concentrations in the supernatant were measured by ELISA.
The experiment in this example was performed in the same manner as in Example 3, and the IL-1β, IL-18, TNFα, IL-6, RANTES, MIP-1α and MIP-1β concentrations in the culture supernatant were measured.

THP-1 cells = assay: CD86 and CD54 expression in THP-1 cells (flow cytometry, RFI); type: cell-based, human; conditions: overnight culture, relative fluorescence intensity
Experimental: THP-1 cells were seeded at a density of 2.0×10^5 cells/mL in 50 mL of RPMI1640 medium containing 10% FBS and 0.05 mM mercaptoethanol in a 75-cm^2 flask, and precultured for 48 hours.
The precultured THP-1 cells were harvested by centrifugation and suspended at 2.0×10^6 cells/mL in RPMI1640 medium containing 10% FBS and 0.05 mM mercaptoethanol, and the cell suspension was added to a 24-well plate at 500 μL/well. Test peptides were separately dissolved in the same medium as above, and 500 μL of each of the solutions was added to separate wells containing the cell suspension.
After overnight culture, the cells were harvested by centrifugation and washed twice with PBS containing 0.1% BSA (FACS buffer). The cells were then dispersed in 600 μL of FACS buffer containing 0.01% human γ-globulin solution (Sigma, G2388), and incubated at 4° C. for 10 minutes for blocking of Fc receptors.
After that, the cell suspension was divided into three 180-μL aliquots in 1.5-mL tubes, the tubes were centrifuged, and the cell pellets were prepared for the reaction with antibodies. To the cell pellets, FITC-labeled antibody solutions separately diluted to appropriate concentrations in FACS buffer were added in a volume of 50 μL, and incubation was performed at 4° C. for 30 minutes. The antibodies used were CD86 antibody (Pharmingen; Cat#555657), CD54 antibody (Dako; Cat# F7143) and isotype control (Mouse IgG) antibody (Dako; Cat#X0927). After the 30-minute incubation, the cells were harvested by centrifugation and washed twice with FACS buffer. The cells harvested by centrifugation were dispersed in 200 μL of FACS buffer containing 0.625 μg/mL propidium iodide, and the expression levels of the cell surface antigens on 1×10^4 viable cells were measured by flow cytometry. Forward and side scatter gating was not used for the analysis, and the relative fluorescence intensity (RFI) was calculated from the measured mean fluorescence intensities (MFI) by the following formula. […]
When the viability of the non-treated control cells (vehicle treatment cells) was 90% or more, the test was considered valid. In the case where the cell viability at a particular sample concentration used in the test was lower than 50%, the data of the CD54 level at the concentration was excluded from the evaluation.

beagles = assay: Adjuvant effect in dogs (anti-Ang II antibody titer after Ang II-KLH vaccine); type: in vivo; conditions: Ang II-KLH 25 μg/animal + OSK-1 500 μg/animal intracutaneously twice at a 2-week interval
Experimental: The adjuvant effect of OSK-1 was compared with that of the conventional Freund's adjuvant in dogs. Ang II-KLH (angiotensin II-keyhole limpet hemocyanin) as a vaccine (25 μg/animal) and OSK-1 (500 μg/animal) or Freund's adjuvant (250 μL/animal) as an adjuvant were intracutaneously administered to beagles twice at a 2-week interval (2 animals per group). For the Freund's adjuvant group, complete Freund's adjuvant was used at the first administration, and incomplete Freund's adjuvant was used at the second administration. Blood was drawn before the first administration and 2 and 4 weeks after the first administration, and the anti-Ang II antibody titer was measured.
The serum separated from the blood was serially diluted in 5% skim milk/PBS, and the diluted sera were added to an Ang II-BSA-coated 96-well ELISA plate. The plate was allowed to stand at 4° C. overnight. The wells were washed with PBS-T, an HRP-labeled anti-mouse IgG antibody diluted in 5% skim milk/PBS was added to the wells. The plate was incubated with agitation at room temperature for 3 hours. The wells were washed with PBS-T, and a TMB solution was added to the wells. The plate was allowed to stand under protection from light for 30 minutes, and 0.5 N H2SO4 was added to the wells to stop the reaction. The absorbance at 450 nm was measured and used for antibody titer comparison.

C57/BL6 mice = assay: Adjuvant effect in mice (anti-Ang II antibody titer after Ang II-KLH vaccine); type: in vivo; conditions: Ang II-KLH 2 μg/animal + OSK-1 100 μg/animal intracutaneously 3 times at 2-week intervals
Experimental: For the Freund's adjuvant group, complete Freund's adjuvant was used at the first administration, and incomplete Freund's adjuvant was used at the second and third administration. Blood was drawn before the first administration and 2, 4, 6 and 8 weeks after the first administration, and the anti-Ang II antibody titer was measured.
The antibody titer was measured in the same manner as in Example 7.

NFκB = assay: Activation of NFκB in THP-1 cells (TNFα production with or without NFκB inhibitors); type: cell-based, human; conditions: for production of TNFα: OSK-1 100 ng/mL
Experimental: THP-1 cells were diluted to 5×10^5 cells in 500 μL of RPMI1640 medium containing 10% FBS, and the cell suspension was added to a 24-well plate at 500 μL/well. QNZ (Enzo, final concentration: 10 μM) in RPMI1640 medium containing 10% FBS, BAY11-7082 (Enzo, final concentration: 10 μM) in RPMI1640 medium containing 10% FBS and RPMI1640 medium containing 10% FBS were added to the plate, and the cells were cultured for 2.5 hours. OSK-1 was added to the wells at a final concentration of 100 ng/mL, and the cells were cultured for 2 hours. After that, the culture supernatant was harvested, and the TNFα concentration in the supernatant was measured by ELISA.

## ELKLIFLHRLKRLRKRLKRK (Ac-ELKLIFLHRLKRLRKRLKRK-NH2) [OSK-1]
[1]; Example 11, ELISA
  production of the chemokines and cytokines (IL-1β, IL-18, TNFα, IL-6, RANTES, MIP-1α and MIP-1β): induced the production of the chemokines and cytokines in the PMA-differentiated THP-1 cells in an OSK-1 concentration dependent manner
[1]; OSK-1 at 30 μg/mL, 16 hours, ELISA
  production of the cytokines (IL-1β, IL-18, TNFα and IL-6 concentrations in the culture supernatant): strongly induced the production of the cytokines
THP-1 cells
  expression of CD54: strongly induced; also recorded: comparable or superior to that of muramyl dipeptide (MDP); also recorded: more highly active for inducing CD54 expression than SR-07 and SR-08
  expression of CD86: strongly induced; also recorded: comparable or superior to that of muramyl dipeptide (MDP)
beagles
  anti-Ang II antibody titer: increase in the anti-Ang II antibody titer was observed
C57/BL6 mice
  anti-Ang II antibody titer: increase in the anti-Ang II antibody titer was observed; also recorded: smaller than that in the Freund's adjuvant (FA) group, but comparable to that in the alum group
NFκB; 2 hours
  production of TNFα: induced the production of TNFα
NFκB; in the presence of NFκB inhibitor BAY11-7082 10 μM
  production of TNFα: inhibited in the presence of the NFκB inhibitor QNZ or BAY11-7082
NFκB; in the presence of NFκB inhibitor QNZ 10 μM
  production of TNFα: inhibited in the presence of the NFκB inhibitor QNZ
NFκB; concluded from TNFα production with and without NFκB inhibitors
  activating NFκB: effective for activating NFκB
